From US7019026B1, “Modulators of Protein Tyrosine Phosphatases (PTPases)” (Novo Nordisk A/S, priority 1999, dated 2006)

Key:
[1] = target: T1, truncated form of PTP1 B (corresponding to the first 321 amino acids) (Homo sapiens, UniProt P18031); experiment: Inhibition of PTP1B (p-nitrophenyl phosphate substrate, enzyme kinetic analysis); assay type: biochemical; settings: truncated PTP1B expressed in E. coli; substrate p-nitrophenyl phosphate 0.16 to 10 mM; 50 mM HEPES pH 7.0; 60 minutes; read-out: PTP1B K1 values
T1 construct: truncated form of PTP1 B (corresponding to the first 321 amino acids); made in house; host or cells: E. coli
T1 sequence (P18031 1-321): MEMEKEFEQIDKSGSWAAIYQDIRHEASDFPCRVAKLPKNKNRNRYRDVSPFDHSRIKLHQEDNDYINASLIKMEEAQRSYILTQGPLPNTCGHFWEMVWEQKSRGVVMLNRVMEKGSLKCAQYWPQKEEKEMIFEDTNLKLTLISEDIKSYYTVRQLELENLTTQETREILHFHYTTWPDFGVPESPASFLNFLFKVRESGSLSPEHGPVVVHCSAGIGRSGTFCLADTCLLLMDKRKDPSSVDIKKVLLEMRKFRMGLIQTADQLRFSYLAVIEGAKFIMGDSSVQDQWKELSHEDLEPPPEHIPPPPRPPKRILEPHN
Procedure: The compounds are evaluated for biological activity with a truncated form of PTP1 B (corresponding to the first 321 amino acids), which was expressed in E. coli and purified to apparent homogeneity using published procedures well-known to those skilled in the art. The enzyme reactions are carried out using standard conditions essentially as described by Burke et al. (Biochemistry 35; 15989–15996 (1996)). The assay conditions are as follows. Appropriate concentrations of the compounds of the invention are added to the reaction mixtures containing different concentrations of the substrate, p-nitrophenyl phosphate (range: 0.16 to 10 mM—final assay concentration). The buffer used was 50 mM HEPES pH 7.0, 100 mM sodium chloride, 0.1% (w/v) bovine serum albumin, 5 mM glutathione, and 1 mM EDTA.). The reaction was started by addition of the enzyme and carried out in microtiter plates at […] for 60 minutes. The reactions are stopped by addition of NaOH. The enzyme activity was determined by measurement of the absorbance at 405 nm with appropriate corrections for absorbance at 405 nm of the compounds and p-nitrophenyl phosphate. The data are analyzed using nonlinear regression fit to classical Michaelis Menten enzyme kinetic models. Inhibition is expressed as Ki values in μM.

Ki [1] [µM]	melting point [°C]	Structure (SMILES)
0.8	–	O=C(O)C(=O)Nc1sc2c(c1C(=O)O)CCOC2COC1=NS(=O)(=O)c2ccccc21 (centres unmarked) [Example 47]
1.5	> 250	O=C(O)C(=O)Nc1sc2c(c1C(=O)O)CCOC2CN1C(=O)S/C(=C\c2c[nH]cn2)C1=O (centres unmarked) [Example 41, 7-(5-(1H-imidazol-4(5)-ylmethylene)-2,4-dioxo-thiazolidin-3-ylmethyl)-2-(oxalyl-amino)-4,7-dihydro-5H-thieno[2,3-c]pyran-3-carboxylic acid]
1.4	–	O=C(O)C(=O)Nc1sc2c(c1C(=O)O)CCOC2CN1C(=O)C=C(c2ccccc2)S1(=O)=O (centres unmarked) [Example 49, 2-(Oxalyl-amino)-7-(1,1,3-trioxo-5-phenyl-1,3-dihydro-isothiazol-2-ylmethyl)-4,7-dihydro-5H-thieno[2,3-c]pyran-3-carboxylic acid]
8.2	–	O=C(O)C(=O)Nc1sc2c(c1C(=O)O)CCOC2CNC(=O)c1ccc2c(c1)OCO2 (centres unmarked) [Example 28, 7-(((Benzo[1,3]dioxole-5-carbonyl)amino)methyl)-2-(oxalyl-amino)-4,7-dihydro-5H-thieno[2,3-c]pyran-3-carboxylic acid]
9.7	–	O=C(O)C(=O)Nc1sc2c(c1C(=O)O)CCOC2CN1C(=O)CSC1=O (centres unmarked) [Example 23, 7-(2,4-Dioxo-Thiazolidin-3-ylmethyl)-2-(oxalyl-amino)-4,7-dihydro-5H-thieno[2,3-c]pyran-3-carboxylic acid]
3	–	O=C(O)C(=O)Nc1sc2c(c1C(=O)O)CCOC2COC1=NS(=O)(=O)C(c2ccccc2)=C1 (centres unmarked) [Example 50, 7-(1,1-Dioxo-5-phenyl-1H-isothiazol-3-yloxymethyl)-2-(oxalyl-amino)-4,7-dihydro-5H-thieno[2,3-c]pyran-3-carboxylic acid]
2.3	–	O=C(O)C(=O)Nc1sc2c(c1C(=O)O)CCOC2CN1C(=O)c2ccccc2S1(=O)=O (centres unmarked) [Example 46, 2-(Oxalyl-amino)-7-(1,1,3-trioxo-1,3-dihydro-1H-benzo[d]isothiazol-2-ylmethyl)-4,7-dihydro-5H-thieno[2,3-c]pyran-3-carboxylic acid]
7.5	–	CC(=O)Nc1ccc(/C=C2\SC(=O)N(CC3OCCc4c3sc(NC(=O)C(=O)O)c4C(=O)O)C2=O)cc1 (centres unmarked) [Example 39, 7-(5-(4-Acetylamino-benzylidene)-2,4-dioxo-thiazolidin-3-ylmethyl)-2-(oxalyl-amino)-4,7-dihydro-5H-thieno[2,3-c]pyran-3-carboxylic acid]
7	–	O=C(O)C(=O)Nc1sc2c(c1C(=O)O)CCOC2CN1C(=O)c2cccc(O)c2C1=O (centres unmarked) [Example 25, 7-(4-Hydroxy-1,3-dioxo-1,3-dihydro-isoindol-2-ylmethyl)-2-(oxalyl-amino)-4,7-dihydro-5H-thieno[2,3-c]pyran-3-carboxylic acid]
3.6	–	O=C(O)C(=O)Nc1sc2c(c1C(=O)O)CCOC2CN1C(=O)c2cc3c(cc2C1=O)OCO3 (centres unmarked) [Example 27]
1.5	–	O=C(O)C(=O)Nc1sc2c(c1C(=O)O)CC(CN1C(=O)c3cccc(O)c3C1=O)OC2 (centres unmarked) [Example 4, 5-(4-Hydroxy-1,3-dioxo-1,3-dihydro-isoindol-2-ylmethyl)-2-(oxalyl-amino)-4,7-dihydro-5-H-thieno[2,3-c]pyran-3-carboxylic acid]
1.2	–	COc1ccc2c(c1)C(=O)N(CC1OCCc3c1sc(NC(=O)C(=O)O)c3C(=O)O)C2=O (centres unmarked) [Example 26, 5-(5-Methoxy-1,3-dioxo-1,3-dihydro-isoindol-2-ylmethyl)-2-(oxalyl-amino)-4,7-dihydro-5H-thieno[2,3-c]pyran-3-carboxylic acid]
1.3	–	O=C(O)C(=O)Nc1sc2c(c1C(=O)O)CCOC2Cn1c(=O)c2ccccc2[s+]1[O-] (centres unmarked) [Example 55, 7-(1,3-Dioxo-1,3-dihydro-benzo[d]isothiazol-2-ylmethyl)-2-(oxalyl-amino)-4,7-dihydro-5H-thieno[2,3-c]pyran-3-carboxylic acid]
